Molecules are shown by their SMILES.

Assay [1] addresses His-tagged KRAS G12D protein (Homo sapiens (Human), UniProt P01116, G12D). Nature of the assay: KRAS G12D TR-FRET Assay. To be noted: read-out: KRAS G12D Binding IC50. In kind it is binding. In a few lines:
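Each incubation ran at room temperature: enzyme with compound for 30 minutes, peptide for one hour, and detection reagents (0.4 nM europium anti-6×His, 5 nM streptavidin-d2) for one hour more. Protein and peptide stocks were each diluted to 20 nM before addition.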

In assay [2] the target is GDP-bound KRAS protein (aa 1-169), containing both G12D and C118A amino acid substitutions (Homo sapiens (Human), UniProt P01116, C118A/G12D). Nature of the assay: KRAS G12D Coupled Nucleotide Exchange Assay. To be noted: read-out: KRAS G12D Coupled Exchange IC50. It is filed as biochemical.
For assay [3], the system named is Phosphorylation of ERK1/2 in AsPC-1 cells. Nature of the assay: Phospho-ERK1/2 MSD Assay. In kind it is cell-based, human. To be noted: Homo sapiens, ASPC1, 2 h, read-out: 2 h p-ERK (AsPC-1 cells), IC50. In a few lines:
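Read-out: MSD electrochemiluminescent detection of phosphorylated ERK1/2 in whole-cell lysates, fitted to a 4-parameter logistic curve for IC50. Prior to lysis, AsPC-1 cells (25,000 per well) received a 2 h compound dose-response at 37 °C.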

In the next assay the test system is AsPC-1 cells. Nature of the assay: AsPC-1 CTG Assay (CellTiter-Glo cell viability). It is filed as cell-based, human. To be noted: Homo sapiens, ASPC1, 72 h, AsPC-1, 72 h; first value of the cell; read-out: G12D/C/V Cell Proliferation CTG (72 h) AsPC-1. In a few lines:
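IC50 values derive from 4-parameter logistic fits of CellTiter-Glo luminescence, expressed relative to DMSO. Compound dilution series were applied to overnight-seeded AsPC-1 or SW620 cells (RPMI 1640, 10% FBS) for 72 h at 37 °C, 5% CO2.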
For orientation: ATP-based viability assays read luminescence as a measure of living cells.

The subject of another assay is SW620 cells. Nature of the assay: SW620 CTG Assay (CellTiter-Glo cell viability). In kind it is cell-based, human. To be noted: Homo sapiens, SW-620; SW620, 72 h; third value of the cell; read-out: G12D/C/V Cell Proliferation CTG (72 h) SW620. As to the method: AsPC-1 and SW620 CTG Assay Protocols
AsPC-1 (human pancreatic adenocarcinoma; ATCC CRL-1682) or SW620 (human colon adenocarcinoma; ATCC CCL-227) cells were cultured in RPMI 1640 medium containing 10% fetal bovine serum and 1× penicillin/streptomycin/L-glutamine. Cells were seeded in 384-well plates at a density of 3.33E+04 cells/mL and incubated at 37° C., 5% CO2, overnight. Serially-diluted compound or DMSO was added to the cells, and plates were incubated at 37° C., 5% CO2 for 72 h. Cell viability was measured using a CellTiter-Glo® Luminescent Cell Viability Assay kit (Promega) according to the manufacturer's protocol. The luminescence signal of treated samples was normalized to DMSO control, and data were analyzed using a 4-parameter logistic model to calculate IC50 values.

The test system of the next assay is MIA PaCa-2 cells. Nature of the assay: MIA PaCa-2 CTG Assay (CellTiter-Glo cell viability). In kind it is cell-based, human. To be noted: Homo sapiens; Mia PaCa-2, 72 h; second value of the cell; read-out: G12D/C/V Cell Proliferation CTG (72 h) Mia PaCa-2. In a few lines: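 IC50 values come from a 4-parameter logistic fit of CellTiter-Glo luminescence, normalized to DMSO control, after 72 h compound exposure at 37° C, 5% CO2. Cells grew in RPMI 1640 plus 10% FBS and were seeded at 1.67E+04 cells/mL one night before dosing.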

His-tagged KRAS G12D protein, sequence (P01116 other isoform, or with tags, fused parts or gaps G12D): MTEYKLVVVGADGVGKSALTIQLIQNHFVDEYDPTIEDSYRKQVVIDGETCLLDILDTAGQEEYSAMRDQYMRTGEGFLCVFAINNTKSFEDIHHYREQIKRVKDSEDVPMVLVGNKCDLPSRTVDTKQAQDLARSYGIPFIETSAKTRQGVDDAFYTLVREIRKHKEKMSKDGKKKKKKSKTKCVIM
GDP-bound KRAS protein (aa 1-169), containing both G12D and C118A amino acid substitutions, sequence (P01116 other isoform, or with tags, fused parts or gaps G12D/C118A): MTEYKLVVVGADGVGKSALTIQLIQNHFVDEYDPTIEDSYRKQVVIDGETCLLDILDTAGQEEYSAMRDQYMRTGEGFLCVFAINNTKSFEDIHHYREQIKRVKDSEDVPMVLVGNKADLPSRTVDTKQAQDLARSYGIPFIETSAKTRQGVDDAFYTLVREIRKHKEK

Regarding `C[C@@]12CCCN(C1)c1nc(OC[C@@]34CCCN3C[C@H](F)C4)nc3c(F)c(ncc13)-c1cc(O)cc3ccc(F)c(c13)CCCC(=O)N2` [Example 4, (15R)-22,31-Difluoro-8-(((2R,7aS)-2-fluorotetrahydro-1H-pyrrolo[1,2-a]pyrrol-7a(5H)-yl)methoxy)-27-hydroxy-15-methyl-3,7,9,11,16-pentaazahexacyclo[19.7.1.1˜2,6˜.1˜11,15˜.0˜5,10˜.0˜25,29˜]hentriaconta-1(28),2(31),3,5,7,9,21,23,25(29),26-decaen-17-one bis(2,2,2-trifluoroacetate)], the IC50 was 4 nM in assay [1]; 2 nM in assay [2]; 3 nM in assay [3]; 14 nM in the assay on AsPC-1 cells; 7 nM in the assay on SW620 cells; 5 nM in the assay on MIA PaCa-2 cells.

On to `Cc1c2ncc3c(nc(OC[C@@]45CCCN4C[C@H](F)C5)nc13)N1CCC[C@](C)(C1)NC(=O)CCCc1c(F)ccc3cc(O)cc-2c13` [Example 18, (15R)-22-Fluoro-8-(((2R,7aS)-2-fluorotetrahydro-1H-pyrrolo[1,2-a]pyrrol-7a(5H)-yl)methoxy)-27-hydroxy-15,31-dimethyl-3,7,9,11,16-pentaazahexacyclo[19.7.1.1˜2,6˜.1˜11,15˜.0˜5,10˜.0˜25,29˜]hentriaconta-1(28),2(31),3,5,7,9,21,23,25(29),26-decaen-17-one], for which the IC50 stood at 6 nM in assay [1]; 3 nM in assay [2]; 12 nM in assay [3]; 82 nM in the assay on AsPC-1 cells; 32 nM in the assay with SW620 cells; 29 nM with MIA PaCa-2 cells.

For `Cc1cc2[nH]ncc2c2c1CCCCC(=O)O[C@@H]1CCCN(C1)c1nc(OC[C@@]34CCCN3C[C@H](F)C4)nc3c(F)c-2ncc13` [Example 31, (17R)-30-Fluoro-24-(((2R,7aS)-2-fluorotetrahydro-1H-pyrrolo[1,2-a]pyrrol-7a(5H)-yl)methoxy)-9-methyl-16-oxa-5,6,21,23,25,29-hexaazahexacyclo[24.3.1.1˜17,21.0˜2,10˜.0˜3,7˜.0˜22,27˜]hentriaconta-1(30),2,4,7,9,22,24,26,28-nonaen-15-one bis(2,2,2-trifluoroacetate)], the IC50 in assay [3] was determined as 33 nM; in the assay on SW620 cells it was 133 nM; with MIA PaCa-2 cells, 170 nM.

Consider `O=C1OC[C@@H]2C[C@@H]2c2c(Cl)cc3[nH]ncc3c2-c2ncc3c(nc(OC[C@@]45CCCN4C[C@H](F)C5)nc3c2F)N2CCC[C@H](C2)O1` [Example 45, (11S,13R,18R)-9-Chloro-31-fluoro-25-(((2R,7aS)-2-fluorotetrahydro-1H-pyrrolo[1,2-a]pyrrol-7a(5H)-yl)methoxy)-15,17-dioxa-5,6,22,24,26,30-hexaazaheptacyclo[25.3.1.1˜18,22˜.0˜2,10˜.0˜3,7˜.0˜11,13˜.0˜23,28˜]dotriaconta-1(31),2,4,7,9,23,25,27,29-nonaen-16-one bis(2,2,2-trifluoroacetate)], for which the IC50 in assay [1] turned out to be 2 nM; in assay [2], 1 nM; in assay [3], 1 nM; in the assay with AsPC-1 cells it was 50 nM; in the assay with SW620 cells, 10 nM; with MIA PaCa-2 cells it was 10 nM.

For `O=C1CCCCc2c(Cl)cc3[nH]ncc3c2-c2ncc3c(nc(OC[C@@]45CCCN4C[C@H](F)C5)nc3c2F)N2CCCC[C@H](C2)N1` [Example 65, (26R)-18-Chloro-32-fluoro-4-(((2R,7aS)-2-fluorotetrahydro-1H-pyrrolo[1,2-a]pyrrol-7a(5H)-yl)methoxy)-1,3,5,9,14,15,25-heptaazahexacyclo[24.4.1.1˜6,10˜.0˜2,7˜.0˜11,19˜.0˜12,16˜]dotriaconta-2,4,6,8,10(32),11,13,16,18-nonaen-24-one bis(2,2,2-trifluoroacetate)], the IC50 in assay [1] amounted to 6 nM; in assay [2] it was 2 nM; in assay [3] it was 24 nM; in the assay on AsPC-1 cells, 320 nM; in the assay with SW620 cells, 52 nM; in the assay on MIA PaCa-2 cells it was 160 nM.

Regarding `Cc1cc2[nH]ncc2c2c1[C@H]1C[C@H]1COC(=O)O[C@@H]1CCCN(C1)c1nc(OC[C@@]34CCCN3C[C@H](F)C4)nc3c(F)c-2ncc13` [Example 110], the IC50 in assay [1] amounted to 3 nM; in assay [2] it was 2 nM; in assay [3], 4 nM; with AsPC-1 cells it was 80 nM; in the assay on SW620 cells it was 10 nM; in the assay with MIA PaCa-2 cells it was 20 nM.

For `O=C1OCCCc2c(Cl)cc3[nH]ncc3c2-c2ncc3c(nc(OC[C@@]45CCCN4C[C@H](F)C5)nc3c2F)N2CCC[C@H](C2)O1` [Example 115], the IC50 in assay [1] was 3 nM; in assay [2], 1 nM; in assay [3] it was 10 nM; with AsPC-1 cells it was 60 nM; in the assay on SW620 cells, 27.4 nM; in the assay on MIA PaCa-2 cells, 60 nM.

Take `Cc1cc2[nH]ncc2c2c1CCCCOC[C@@H]1CCCN(C1)c1nc(OC[C@@]34CCCN3C[C@H](F)C4)nc3c(F)c-2ncc13` [Example 129, (17R)-30-Fluoro-24-(((2R,7aS)-2-fluorotetrahydro-1H-pyrrolo[1,2-a]pyrrol-7a(5H)-yl)methoxy)-9-methyl-15-oxa-5,6,21,23,25,29-hexaazahexacyclo[24.3.1.1˜17,21˜.0˜2,10˜.0˜3,7˜.0˜22,27˜]hentriaconta-1(30),2,4,7,9,22,24,26,28-nonaene bis(2,2,2-trifluoroacetate)]: the IC50 was 4 nM in assay [1]; 2 nM in assay [2]; 20 nM in assay [3]; 170 nM in the assay with AsPC-1 cells; 67.4 nM in the assay with SW620 cells; 90 nM in the assay on MIA PaCa-2 cells.

As for `Fc1c2ncc3c(nc(OC[C@@]45CCCN4C[C@H](F)C5)nc13)N1CCCCC(COCCCCc3c(Cl)cc4[nH]ncc4c3-2)C1` (some centres unmarked) [Example 141], the IC50 is 2 nM in assay [1]; 1 nM in assay [2]; 6 nM in assay [3]; 120 nM in the assay with AsPC-1 cells; 20.2 nM in the assay with SW620 cells; 20 nM in the assay on MIA PaCa-2 cells.

As for `CN(C)CC1(COc2nc3c4cnc(c(F)c4n2)-c2c(c(Cl)cc4[nH]ncc24)CCCOC(=O)O[C@@H]2COCCN3C2)CC1` [Example 195, (26S)-18-chloro-4-((1-((dimethylamino)methyl)cyclopropyl)methoxy)-32-fluoro-23,25,28-trioxa-1,3,5,9,14,15-hexaazahexacyclo[24.4.1.1~6,10~.0~2,7~.0~11,19~.0~12,16~]dotriaconta-2,4,6,8,10(32),11,13,16,18-nonaen-24-one], the IC50 in assay [3] was found to be 6 nM; with AsPC-1 cells, 67 nM; in the assay on SW620 cells, 50 nM; with MIA PaCa-2 cells, 31 nM.

`C[C@@]12CCCN(C1)c1nc(OC[C@@]34CCCN3C[C@H](F)C4)nc3c(F)c(ncc13)-c1c(c(Cl)cc3[nH]ncc13)CCCOC(=O)O2` [Example 327, (17R)-9-chloro-30-fluoro-24-(((2R,7aS)-2-fluorotetrahydro-1H-pyrrolo[1,2-a]pyrrol-7a(5H)-yl)methoxy)-17-methyl-14,16-dioxa-5,6,21,23,25,29-hexaazahexacyclo[24.3.1.1~17,21~.0~2,10~.0~3,7~.0~22,27~]hentriaconta-1(30),2,4,7,9,22,24,26,28-nonaen-15-one]: the IC50 in assay [1] was 4 nM; in assay [2] it was 2 nM; in assay [3] it was 8.4 nM; with AsPC-1 cells, 13 nM; in the assay with SW620 cells it was 24 nM.

On to `O=C1OCCCc2c(Cl)cc3[nH]ncc3c2-c2ncc3c(nc(OC[C@@]45CCCN4C[C@H](F)C5)nc3c2F)N2CCC[C@](CF)(C2)O1` [Example 336, (17R)-9-chloro-30-fluoro-17-(fluoromethyl)-24-(((2R,7aS)-2-fluorotetrahydro-1H-pyrrolo[1,2-a]pyrrol-7a(5H)-yl)methoxy)-14,16-dioxa-5,6,21,23,25,29-hexaazahexacyclo[24.3.1.1~17,21~.0~2,10~.0~3,7~.0~22,27~]hentriaconta-1(30),2,4,7,9,22,24,26,28-nonaen-15-one], for which the IC50 in assay [1] was found to be 3 nM; in assay [2] it was 3 nM; in assay [3] it was 12 nM; with AsPC-1 cells, 31 nM; in the assay with SW620 cells, 49 nM.

The values above are taken from patent US20240294551A1 (AMGEN INC., priority 2022, published 2024).
